Data from patent US5001128A, “HMG-COA reductase inhibitors” (Rhone-Poulenc Rorer Pharmaceuticals Inc., priority 1989, dated 1991).

Legend:
HMG-CoA reductase = test: HMGR Screen (inhibition of solubilized rat liver HMG-CoA reductase, [14C] HMG-CoA); type: biochemical; settings: solubilized rat liver microsomal enzyme; 20 μM HMG-CoA; 37° C.; pH 7.0; read-out: IC50 (Micromoles per liter), HMGR Screen
Protocol: The first method used (designated HMGR Screen) was as follows. Male rats were acclimated to an alternate 12 hour light-dark cycle for a period of 2-3 weeks. The animals, weighing 180-230 g, were fed ad libitum a rat chow containing 2% cholestyramine for 5 days prior to sacrifice at the mid-dark period. Liver microsomes were prepared and HMGR enzyme was solubilized from the microsomes by freeze-thaw manipulation in high ionic strength buffer. The enzyme preparation was stored at -80° C. in 300 μl portion samples. Prior to use, the enzyme was activated at 37° C. for 30 minutes in a reaction mixture. The reaction mixture contained in a volume of 240 μl:0.14M potassium phosphate buffer (pH 7.0); 0.18M KCl; 3.5 mM EDTA; 10 mM dithiothreitol; 0.1 mg/ml BSA; 30,000 cpm of [^14 C] HMG-CoA; 20 μM HMG-CoA, and 200 μg of solubilized enzyme with and without inhibitors (in 10 μDMSO). After 5 minutes incubation at 37° C. the reaction was initiated with 0.2 mM NADPH. The final assay volume was 300 μl. The reaction then was terminated with 100 μl of 1N HCl. After an additional incubation for 15 minutes at 37° C. to allow for complete lactonization of the product, the mixture was diluted with 3 ml GDW. […] After the addition of 10 ml of Aquasol , radioactivities of the samples were measured in a scintillation counter.

[1] = test system: cholesterol synthesis in rat liver; test: Ex-Vivo Fasted (cholesterol synthesis from [14C] sodium acetate in liver slices of orally dosed fasted rats); settings: 1 mg/kg oral in 0.5% methocel, rats fasted 16 hours, livers removed after one hour
Protocol: The second method (designated Ex-Vivo Fasted) used was as follows. Rats of 170-210 g were maintained on a low cholesterol diet for one week prior to use. Drugs (identified in Table I) were given orally in 0.5% methocel to fasted (fasted for 16 hours) rats. After one hour the rats were decapitated and their livers removed and transferred to chilled oxygenated Kreb's-Ringer-bicarbonate buffer (pH 7.4). The livers were then chopped into 0.5 mm slices using a McIlwain tissue chopper, and were suspended in the same buffer. Aliquots of the suspension containing 100 mg tissue were pipetted to culture tubes which contained [^14 C] sodium acetate (2μ Ci, 1 mM). The tubes were gassed with 95% O2 /5 % CO2, capped and incubated at 37° C. in a shaking water bath at 150 oscillation/min. for two hours. The final assay volume was 1.0 ml. After incubation the reaction was stopped by the addition of 1.0 ml of 15% KOH in ethanol, and the internal standard ^3 H-cholesterol was added. The tubes were recapped and the samples were saponified at 75° C. for two hours with periodic mixing. Subsequently an aliquot was removed for protein analysis using Bio-Rad's standard kit, and the remainder of the saponified samples was extracted with 10 ml of petroleum ether for 30 minutes. […] After visualization with iodine the cholesterol spots were cut and counted with liquid scintillation fluid.

IC50 (HMG-CoA reductase) [nM] | Structure (SMILES) | inhibition at 1 mg/kg [1] [%]
0.9 | O=C1C[C@@H](O)C[C@H](/C=C/C2=C(c3ccc(F)cc3)C=C(c3ccccc3)C23CCCC3)O1 (relative stereo) [Compound of Example I Step 9, Trans-(E)-6-[2-[2-(4-fluorophenyl)-4-phenyl-spiro[4,4]-nona-1,3-dien-1-yl]ethenyl]-3,4,5,6-tetrahydro-4-hydroxy-2H-pyran-2-one] | –
– | O=C(O)C[C@H](O)C[C@H](O)/C=C/C1=C(c2ccc(F)cc2)C=C(c2ccccc2)C12CCCC2 (relative stereo) | 65 ± 4
70 | O=C1C[C@@H](O)C[C@H](/C=C/C2=C(c3ccc(F)cc3)C=C(c3ccccc3)C23CCCC3)O1 (relative stereo) [Lactone Form of Compound of Example I Step 9] [Trans-(E)-6-[2-[2-(4-fluorophenyl)-4-phenyl-spiro[4,4]-nona-1,3-dien-1-yl]ethenyl]-3,4,5,6-tetrahydro-4-hydroxy-2H-pyran-2-one] | –
